Assay results from US7871995B2, “Drug delivery system comprising a tetrahydroxylated estrogen for use in hormonal contraception” (Pantarhei Bioscience B.V., priority 2001, dated 2011).
Like-named read-outs stand apart in the source and are kept apart here.

Assays:
[1] = tested on: ovariectomized adult rats (vaginal epithelial cornification); experiment: Vaginal cornification bioassay in ovariectomized rats, subcutaneous dosing; type: in vivo, rat
Description: Adult intact female CD rats were ovariectomized to induce estrogen deficiency. […] Castrate vaginal smears are indicative that complete ovariectomy was achieved. Treatment commenced following completion of the 7 days of smearing (day 0=first day of dosing). Animals were dosed, once daily for 7 consecutive days. Daily vaginal lavages continued to be obtained for 7 days after dosing was initiated in order to detect vaginal cornification, as an indication of an estrogenic response. A drop of vaginal washings was placed on a glass slide and examined by light microscopy to detect the presence or absence of cornified epithelial cells. Vaginal lavages were obtained prior to dosing on days 0-6 and prior to necropsy on day 7. The vaginal cornification bioassay was performed in order to determine the estrogenic profile of E4 when given subcutaneously (sc) to ovariectomized adult rats. E2 was used as a positive control. […] The occurrence of vaginal cornification, indicative of an estrogenic response, is an “all or none” response. Data are, therefore, expressed as the number of rats showing a vaginal estrogenic response over the number of rats (ratio) treated.

[2] = target: T1, human sex Hormone Binding Globulin (SHBG) (Homo sapiens, UniProt P04278); experiment: Competitive steroid-binding assay for human SHBG; conditions: for relative binding affinity for human SHBG: rising in the order ethinylestradiol, 17β-estradiol, testosterone, 5α-dihydrotestosterone
T1 construct: Human SHBG was purified from transgenic mouse serum; made in house; host or cells: transgenic mouse (serum)
T1 sequence (P04278 30-402): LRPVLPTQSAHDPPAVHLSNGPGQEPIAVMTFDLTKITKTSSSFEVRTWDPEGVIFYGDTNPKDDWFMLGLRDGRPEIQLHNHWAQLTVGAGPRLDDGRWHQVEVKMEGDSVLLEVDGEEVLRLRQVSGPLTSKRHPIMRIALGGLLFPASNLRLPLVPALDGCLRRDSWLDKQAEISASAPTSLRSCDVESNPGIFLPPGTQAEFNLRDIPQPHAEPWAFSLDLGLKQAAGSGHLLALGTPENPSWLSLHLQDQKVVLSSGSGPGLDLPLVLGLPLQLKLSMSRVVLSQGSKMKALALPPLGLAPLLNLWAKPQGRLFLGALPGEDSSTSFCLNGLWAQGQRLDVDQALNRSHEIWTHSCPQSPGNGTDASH
Description: Human SHBG was treated for 30 min at room temperature with a dextran-coated charcoal (DCC) suspension in phosphate buffered saline (PBS) to remove any steroid ligand. After centrifugation (2,000×g for 10 min) to sediment the DCC, the supernatant containing the human SHBG was diluted in PBS to a concentration of 1 nM based on its steroid binding capacity.
The average amounts of [^3H]labeled ligands bound to SHBG at each concentration of competitor (B) were expressed as a percentage of the average amounts of [^3H]labeled ligands bound to SHBG in the absence of competitor (B0), and were. plotted against the concentration of competitor in each assay tube.

[3] = Elimination half-life after single subcutaneous dose, plasma by HPLC-MS/MS; type: in vivo, rat; conditions: single sc dose, female Sprague Dawley rats, sampling 0.5-24 hours
Description: To determine the elimination half-life of estetrol (E4) after subcutaneous administration (sc), single dose studies were performed in female Sprague Dawley rats followed by frequent blood sampling over a 24 hours interval.
Female Sprague Dawley rats were equipped with a permanent silatic heart catheter, as described by Kuipers et al. (1985,Gastroenterology, 88, 403-411). Rats were allowed to recover from surgery for 5 days and were than administered 0.05, 0.5,or 5 mg/kg E4 in 0.5 ml arachidis oil. E4 was injected in the neck area using a 1 ml syringe and 20 g needle. Blood samples were subsequently collected via the heart catheter in heparinized tubes at 0.5, 1, 2, 4, 8 and 24 hours. Erythrocytes were removed by centrifugation at 5000×g for 10 minutes at 4° C. and blood plasma was stored at −20° C. […] With each sample batch, a calibration curve with 6 calibrators was recorded. The calibration curve was calculated using linear regression (correlation coefficient>0.98), which permitted quantitation of plasma concentrations. […]
Plasma E4 concentration data were analysed with “WinNonLin, edition 3.1” and involved pharmacokinetic parameters for Cmax, AUC0-24 and half-life.

[4] = tested on: four-day cyclic rats (ovulation); experiment: Antiovulatory bioassay in four-day cyclic rats, subcutaneous dosing; type: in vivo, rat; conditions: for inhibition of ovulation: EE 1.0-100 μg/kg, E2 and E4 0.1-3.0 mg/kg; for complete ovulation inhibition: twice daily sc, higher dosages
Description: Vaginal smears from female rats are obtained daily for two weeks to select four-day cycling rats. Only four-day cyclic rats are to be used for the antiovulatory bioassay. […] One day after the final dose (day 5), rats are euthanized by CO2 asphyxiation at 1 pm, and the number of ova per oviduct is determined. Group means are subsequently calculated for the number of ova per ovulated rat (both oviducts). The ratio of rats ovulating for each treatment group is compared to the ratio for the vehicle-treated rats.

immature rat uterus = conditions: subcutaneous, Holinka et al., cited from earlier work
uterus = conditions: continuous administration from a subcutaneous depot; Martucci et al., 1977; cited from earlier work
[5] = tested on: human breast cancer cells (MCF-7); conditions: MCF-7, long term tissue culture; cited from earlier work
[6] = tritium labeled, intravenous, two adult women; cited from earlier work

C[C@]12CC[C@@H]3c4ccc(O)cc4CC[C@H]3[C@@H]1[C@@H](O)[C@@H](O)[C@@H]2O [estetrol, 1,3,5 (10)-estratrien-3, 15α,16α,17β-tetrol]
Number of Rats Exhibiting Estrogenic Response/Number of Rats Treated ([1]; 1.0 mg/kg/day sc, Day 7, listed as E4): all rats showed a vaginal estrogenic response
Number of Rats Exhibiting Estrogenic Response/Number of Rats Treated ([1]; 3.0 mg/kg/day sc, Day 7, listed as E4): all rats showed a vaginal estrogenic response
onset of vaginal epithelial cornification ([1]; sc 0.1, 0.3, 1.0 and 3.0 mg/kg/day): dose-dependent
day of treatment on which vaginal epithelial cornification started ([1]; sc 0.1, 0.3, 1.0 and 3.0 mg/kg/day, same day as observed for E2): 2 days
binding to human SHBG (competitive displacement) ([2]; [3H]DHT as labeled ligand): does not bind at all
binding to human SHBG (competitive displacement) ([2]; [3H]estradiol as labeled ligand): does not bind at all
binding to SHBG compared with the other estrogens tested ([2]; compared with ethinylestradiol and 17β-estradiol): negligible
plasma levels of unconjugated E4 over a 24 hour interval [3]: detection of bioactive levels of unconjugated E4 at all time points
antiovulatory activity compared with E2 ([4]; twice daily sc for 4 days): equal potency or even more potency in inhibiting ovulation than E2
inhibition of ovulation ([4]; twice daily sc for 4 days): dose-dependently inhibits ovulation
complete ovulation inhibition [4]: complete ovulation inhibition is achieved
uterotrophic activity (immature rat uterus; 1979): very weak uterotrophic activity
uterotrophic activity (immature rat uterus; 1980): very weak uterotrophic activity
uterotrophic activity (uterus): very weak uterotrophic activity
agonistic potency in in vitro cell proliferation, of the magnitude observed for 17β-estradiol [5]: 2%
metabolism [6]: virtually no metabolism except for conjugation took place

C[C@]12CCC(=O)C[C@@H]1CC[C@@H]1[C@@H]2CC[C@]2(C)[C@@H](O)CC[C@@H]12 [5α-dihydrotestosterone, reference compound]
relative binding affinity for human SHBG [2]: show an increased relative binding affinity for human SHBG

C[C@]12CC[C@@H]3c4ccc(O)cc4CC[C@H]3[C@@H]1CC[C@@H]2O [17β-estradiol]
Number of Rats Exhibiting Estrogenic Response/Number of Rats Treated ([1]; 0.05 mg/kg/day sc, Day 0): 0/8
Number of Rats Exhibiting Estrogenic Response/Number of Rats Treated ([1]; 0.05 mg/kg/day sc, Day 1): 0/8
Number of Rats Exhibiting Estrogenic Response/Number of Rats Treated ([1]; 0.05 mg/kg/day sc, Day 2): 8/8
Number of Rats Exhibiting Estrogenic Response/Number of Rats Treated ([1]; 0.05 mg/kg/day sc, Day 3): 8/8
Number of Rats Exhibiting Estrogenic Response/Number of Rats Treated ([1]; 0.05 mg/kg/day sc, Day 4): 8/8
Number of Rats Exhibiting Estrogenic Response/Number of Rats Treated ([1]; 0.05 mg/kg/day sc, Day 5): 8/8
Number of Rats Exhibiting Estrogenic Response/Number of Rats Treated ([1]; 0.05 mg/kg/day sc, Day 6): 8/8
Number of Rats Exhibiting Estrogenic Response/Number of Rats Treated ([1]; 0.05 mg/kg/day sc, Day 7): 8/8
inhibition of ovulation ([4]; twice daily sc for 4 days): dose-dependently inhibits ovulation
complete ovulation inhibition [4]: complete ovulation inhibition is achieved

C[C@]12CC[C@H]3[C@@H](CCC4=CC(=O)CC[C@@]43C)[C@@H]1CC[C@@H]2O [testosterone, reference compound]
relative binding affinity for human SHBG [2]: show an increased relative binding affinity for human SHBG
